From patent publication US4551460A, “Pyrido[2,1-b]quinazoline derivatives useful as agents for treatment of allergic conditions and vascular disorders involving thrombosis” (priority 1983, dated 1985)
pIC50: −log10 of the molar value. Read-outs that look alike come from different tables or passages of the source.

Legend:
[1] = biological target: T1, PAF radioreceptor (dog platelets) (Canis lupus familiaris, UniProt A0A8I3NSH0); assay: PAF radioreceptor binding assay; conditions: 3H-PAF
T1 construct: Platelet rich plasma is prepared by centrifugation of citrate-treated dog blood; from tissue; host or cells: washed dog platelets
T1 sequence (A0A8I3NSH0 1-343): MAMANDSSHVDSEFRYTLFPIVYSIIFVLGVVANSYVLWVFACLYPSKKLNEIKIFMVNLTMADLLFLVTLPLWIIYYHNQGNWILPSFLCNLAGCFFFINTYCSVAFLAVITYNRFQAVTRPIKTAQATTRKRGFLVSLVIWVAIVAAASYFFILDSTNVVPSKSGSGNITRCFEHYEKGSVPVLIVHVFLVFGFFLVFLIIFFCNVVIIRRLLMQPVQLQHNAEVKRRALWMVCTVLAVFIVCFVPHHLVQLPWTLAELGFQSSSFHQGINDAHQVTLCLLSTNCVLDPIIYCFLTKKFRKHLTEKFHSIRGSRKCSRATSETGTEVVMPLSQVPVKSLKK
Procedure: (m) PAF Radioreceptor Binding Assay
Platelet rich plasma is prepared by centrifugation of citrate-treated dog blood. Acidification to pH 6.5 with 0.15M citric acid and centrifugation for 10 minutes at 1000 g yields a platelet pellet which is then washed by resuspension in EDTA-Phosphate Buffered Saline (PBS) and recentrifuged. The washed platelet preparation is adjusted to 2×10^7 platelets/50 μl in 0.1% BSA-PBS.
To a […] microfuge tube containing 50 μl silicone oil (specific gravity 1.023) is added buffer, PAF standard or analog, or an extract to bring the aqueous volume to 150 μl. 50 μl of ^3 H-PAF (10,000 cpm, 45 Ci/mM) is added followed by 2×10^7 dog platelets. After mixing, incubating for 10 minutes at room temperature, and centrifuging for 1 minute in a Beckman Microfuge B (8000 g), the pellet is removed by clipping off the tip of the tube, solubilizing the platelets with 200 μl of 50% methanol, and counting in 10 ml of Aquasol.

[2] = tested on: acetylcholine-induced constriction in guinea pig ilea; assay: Antagonism of acetylcholine-induced constriction in guinea pig ilea; conditions: 5.0×10^-7 M acetylcholine; read-out: IC50 antagonism of acetylcholine-induced constrictions
Procedure: (e) Antagonism of Acetylcholine-induced Constriction in Guinea Pig Ilea
Anticholinergic activity was determined on a segment of guinea pig ileum that was suspended in a 37° C. bath of oxygenated Tyrodes solution. At 4 minute intervals, the ileum was challenged with 5.0×10^-7 M acetylcholine for sufficient time to produce a peak contraction and then washed with fresh Tyrodes solution. After the tissue response to acetylcholine had stablized, the ileum was pretreated with the standard anticholinergic, atropine sulfate, for 1 minute prior to rechallenge with acetylcholine, the contraction recorded and the tissue washed with Tyrodes solution. […] The IC50 for atropine was 1×10^-8 M. THe IC50 's for test drugs were determined by this same procedure.

[3] = LD50 in mice (acute toxicity); conditions: mouse, in vivo
[4] = tested on: cutaneous anaphylaxis in passively sensitized rats; assay: Inhibition of allergic mediator release in the rat passive cutaneous anaphylaxis test; type: in vivo, rat (Sprague-Dawley); conditions: po, p.o., read-out: ID50 inhibition of allergic mediator release (PCA test)
Procedure: (i) Inhibition of Cutaneous Anaphylaxis in Passively Sensitized Rats
(l) Preparation of Antiserum
IgE-containing rat antiserum (reaginic antiserum) was prepared according to the following procedure. Normal, male Sprague-Dawley rats (150-200 g) obtained from Charles River Laboratories, Wilmington, Mass., were immunized by an intraperitoneal injection of 0.5 ml Bordetella pertussis vaccine (Cannaught Laboratories, Willowdale, Toronto, Canada, 20 ou/ml) containing 100 μg egg albumin (Nutritional Biochemical Corp., Cleveland, Ohio). On day 16, Nippostrongylus brasiliensis (3000 larvae/0.1 ml) was administered subcutaneously and on day 21, 10 μg of egg albumin was administered intraperitoneally in 0.5 ml normal saline. On day 30, blood was collected by heart puncture and the serum was separated by centrifugation and refrigerated overnight at 5° C. […]
The passive cutaneous anaphylaxis (PCA) test was performed on 190-220 g male Sprague-Dawley rats (Charles River Breeding Laboratories, Wilmington, Mass.), in a manner similar to that described by J. Goose and A.M.J.N. Blair, Immunology, 16, 749(1969). […] The long and short axis of each wheal was measured with a metric vernier caliper and the average diameter was obtained for each reaction. […] The ID50 was calculated by the method of J. Berkson, J.Am.Stat.Assoc., 48, 565(1953).

| Structure (SMILES) | pIC50 [1] | pIC50 [2] | LD50 ([3]; po, orally) [mg/kg] | ED50 ([4]; 5 min, 5 minute pretreatment) [mg/kg] | LD50 ([3]; ip, intraperitoneally) [mg/kg] | ED50 ([4]; 10 min, 10 minute pretreatment) [mg/kg] |
| --- | --- | --- | --- | --- | --- | --- |
| CC(C)c1ccc2nc3ccc(C(=O)NCCCCCCc4cccnc4)cn3c(=O)c2c1 [Compound C, 2-(1-Methylethyl)-N-[6-(3-pyridyl)hexyl]-11-oxo-11H-pyrido[2,1-b]quinazoline-8-carboxamide] | 6.00 |  |  |  |  |  |
| CC(C)c1ccc2nc3ccc(C(=O)NCCCCc4cccnc4)cn3c(=O)c2c1 [Compound B, 2-(1-methylethyl)-N-[4-(3-pyridyl)butyl]-11-oxo-11H-pyrido[2,1-b]quinazoline-8-carboxamide] | 6.35 | 5.15 | > 1000 | 21 |  |  |
| CC(C)c1ccc2nc3ccc(C(=O)NCCCCn4ccnc4)cn3c(=O)c2c1 [Compound A, N-[4-(1H-imidazol-1-yl)butyl]-2-(1-methylethyl)-11-oxo-11H-pyrido[2,1-b]quinazoline-8-carboxamide] |  | 5.30 | 775 |  | 22 | 20 |
